# Measurements from paper PMC12269599, “Analysis of chondroitin degradation by components of a Bacteroides caccae polysaccharide utilization locus” (The Journal of Biological Chemistry, 2025).
# Legend:
# BcGH88 = molecular target: T1, BcGH88 (Bacteroides caccae, UniProt A0A413IVG2); experiment: loss of absorbance at […] nm; type: biochemical; details: only kcat/Km determined; 100 mM Tris pH 7.4, 37 °C
# T1 construct: residues 31-433, N-terminal His6 tag with thrombin site, E. coli
# T1 sequence (A0A413IVG2 31-433): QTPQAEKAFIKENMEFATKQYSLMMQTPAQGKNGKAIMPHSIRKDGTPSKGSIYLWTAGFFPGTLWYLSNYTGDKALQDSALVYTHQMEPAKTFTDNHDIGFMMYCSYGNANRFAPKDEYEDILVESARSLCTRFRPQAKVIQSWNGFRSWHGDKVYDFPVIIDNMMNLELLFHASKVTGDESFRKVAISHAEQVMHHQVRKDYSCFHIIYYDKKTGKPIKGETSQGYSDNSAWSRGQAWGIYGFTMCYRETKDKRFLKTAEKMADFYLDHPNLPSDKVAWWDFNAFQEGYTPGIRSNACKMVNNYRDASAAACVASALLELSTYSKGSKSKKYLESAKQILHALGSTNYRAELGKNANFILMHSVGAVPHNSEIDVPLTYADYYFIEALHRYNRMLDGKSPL
# BcGDH (GH154, BcGH154) = molecular target: T2, BcGDH (GH154, BcGH154) (Bacteroides caccae, UniProt I9ECR6); experiment: absorbance at […] nm; LC-ESI-MS of product; type: biochemical; details: dehydration to 4,5-unsaturated product; only kcat/Km determined; 100 mM Tris pH 7.4, 25 °C
# T2 construct: gene HMPREF1061_03832; residues 24-423, N-terminal His6-thrombin tag (cleaved for crystallography), E. coli, homotetramer; site completed by Y401 of a neighbouring monomer
# T2 sequence (I9ECR6 24-423): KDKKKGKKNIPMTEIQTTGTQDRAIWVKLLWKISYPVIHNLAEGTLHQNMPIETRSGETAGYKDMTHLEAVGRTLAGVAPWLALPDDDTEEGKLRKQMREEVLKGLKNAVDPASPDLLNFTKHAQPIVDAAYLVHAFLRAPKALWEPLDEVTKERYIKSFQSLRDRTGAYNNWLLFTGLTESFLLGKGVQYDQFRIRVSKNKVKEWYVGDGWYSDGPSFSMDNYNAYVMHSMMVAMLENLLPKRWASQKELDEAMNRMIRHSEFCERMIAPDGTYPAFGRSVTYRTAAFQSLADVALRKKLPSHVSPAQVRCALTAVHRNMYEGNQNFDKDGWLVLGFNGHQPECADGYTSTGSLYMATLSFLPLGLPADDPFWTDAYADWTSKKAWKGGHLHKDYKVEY
# [1] = molecular target: BcGDH (β-D-glucuronate dehydratase from Bacteroides caccae PUL25, previously classified as GH154) (Bacteroides caccae (strain ATCC 43185)); experiment: crystal structure; unliganded BcGDH, spacegroup P2_(1), tetramer in the asymmetric unit; crystals at 18 °C from 26 g/L protein, 220 mM KCl, 24% PEG 3350; the same tetramer seen in four further unrefined crystal forms
# [2] = molecular target: BcGDH R285A mutant (Bacteroides caccae (strain ATCC 43185)); experiment: crystal structure; BcGDH R285A soaked in 50 mM chondrosine, spacegroup P2_(1)2_(1)2_(1), tetramer in the asymmetric unit; 18 g/L protein, 0.25 M sodium iodide, 5 to 13% glycerol, 8 to 13% PEG 3350
molecule,measurement,setting,value
CC(=O)N[C@H]1C(O)O[C@H](CO)[C@H](O)[C@@H]1O[C@@H]1OC(C(=O)O)=C[C@H](O)[C@H]1O (some centres unmarked) [CSΔ0S],loss of absorbance at 232 nm,BcGH88,BcGH88 had activity on CSΔ0S and CSΔ6S with kcat/Km values
CC(=O)N[C@H]1C(O)O[C@H](COS(=O)(=O)O)[C@H](O)[C@@H]1O[C@@H]1OC(C(=O)O)=C[C@H](O)[C@H]1O (some centres unmarked) [CSΔ6S],loss of absorbance at 232 nm,BcGH88,BcGH88 had activity on CSΔ0S and CSΔ6S with kcat/Km values
N[C@H]1C(O)O[C@H](CO)[C@H](O)[C@@H]1O[C@@H]1O[C@H](C(=O)O)[C@@H](O)[C@H](O)[C@H]1O (some centres unmarked) [chondrosine],absorbance at 232 nm; LC-ESI-MS of product,"BcGDH (GH154, BcGH154)","The absorbance increased in a time-dependent manner, with the rate of increase dependent upon the chondrosine"
"BcGDH (β-D-glucuronate dehydratase from Bacteroides caccae PUL25, previously classified as GH154) (enzyme)",stoichiometry N,[1],4
BcGDH R285A mutant (enzyme),stoichiometry N,[2],4
